Test results taken from PMC10420655, “Evaluation of α-Glucosidase Inhibition and Antihyperglycemic Activity of Extracts Obtained from Leaves and Flowers of Rumex crispus L” (Molecules, 2023).
≈ marks a conversion by molar mass, not a printed value.

Biological target: T1, α-glucosidase type I from S. cerevisiae
T1 construct: gene MAL12
Test: chromogenic pNPG hydrolysis, absorbance at […] nm, 96-well plate
Format: biochemical, Saccharomyces cerevisiae
Settings: substrate p-nitrophenyl-α-D-glucopyranoside (20 µL of 5 mM stock), 0.1 M phosphate buffer pH 6.9, 37 °C, 15 min preincubation

## C[C@H]1O[C@H](O[C@H]2[C@H](O)[C@@H](O)[C@@H](O[C@H]3[C@H](O)[C@@H](O)C(O)O[C@@H]3CO)O[C@@H]2CO)[C@H](O)[C@@H](O)[C@@H]1N[C@H]1C=C(CO)[C@@H](O)[C@H](O)[C@H]1O (stereo partly shown) [Acarbose]
  IC50: 3698.0 ± 76.5 µg/mL (≈ 5.73 mM)
